Reference: article PMC8398451, “Molecular Engineering of Curcumin, an Active Constituent of Curcuma longa L. (Turmeric) of the Family Zingiberaceae with Improved Antiproliferative Activity” (Plants, 2021)

Key:
[1] = system: CNS Cancer cell line panel; assay: NCI antiproliferative assay, panel summary; format: cell-based, Human
IGROV1 = assay: NCI antiproliferative SRB assay, Ovarian Cancer panel; format: cell-based, Human
EKVX = assay: NCI antiproliferative SRB assay, Non-Small Cell Lung Cancer panel; format: cell-based, Human
RXF 393 = assay: NCI antiproliferative SRB assay, Renal Cancer panel; format: cell-based, Human
[2] = system: Colon Cancer cell line panel; assay: NCI antiproliferative assay, panel summary; format: cell-based, Human
HCC-2998 = assay: NCI antiproliferative SRB assay, Colon Cancer panel; format: cell-based, Human
SF-268 = assay: NCI antiproliferative SRB assay, CNS Cancer panel; format: cell-based, Human
MOLT-4 = assay: NCI antiproliferative SRB assay, Leukemia panel; format: cell-based, Human
SK-MEL-5 = assay: NCI antiproliferative SRB assay, Melanoma panel; format: cell-based, Human
NCI-H460 = assay: NCI antiproliferative SRB assay, Non-Small Cell Lung Cancer panel; format: cell-based, Human
HCT-15 = assay: NCI antiproliferative SRB assay, Colon Cancer panel; format: cell-based, Human
U251 = assay: NCI antiproliferative SRB assay, CNS Cancer panel; format: cell-based
SK-MEL-2 = assay: NCI antiproliferative SRB assay, Melanoma panel; format: cell-based, Human
HCT-116 = assay: NCI antiproliferative SRB assay, Colon Cancer panel; format: cell-based, Human
OVCAR-3 = assay: NCI antiproliferative SRB assay, Ovarian Cancer panel; format: cell-based, Human
COLO 205 = assay: NCI antiproliferative SRB assay, Colon Cancer panel; format: cell-based, Human
CCRF-CEM = assay: NCI antiproliferative SRB assay, Leukemia panel; format: cell-based, Human
LOX IMVI = assay: NCI antiproliferative SRB assay, Melanoma panel; format: cell-based, Human
SR = assay: NCI antiproliferative SRB assay, Leukemia panel; format: cell-based, Human; conditions: 5-dose 0.01-100 µM
MALME-3M = assay: NCI antiproliferative SRB assay, Melanoma panel; format: cell-based, Human
[3] = system: Renal Cancer cell line panel; assay: NCI antiproliferative assay, panel summary; format: cell-based, Human; conditions: Renal Cancer panel
RPMI-8226 = assay: NCI antiproliferative SRB assay, Leukemia panel; format: cell-based, Human
PC-3 = assay: NCI antiproliferative SRB assay, Prostate Cancer panel; format: cell-based, Human
M14 = assay: NCI antiproliferative SRB assay, Melanoma panel; format: cell-based, Human
UO-31 = assay: NCI antiproliferative SRB assay, Renal Cancer panel; format: cell-based, Human
BT-549 = assay: NCI antiproliferative SRB assay, Breast Cancer panel; format: cell-based, Human
HS 578T = assay: as above; format: cell-based, Human
T-47D = assay: as above; format: cell-based, Human
NCI-H226 = assay: NCI antiproliferative SRB assay, Non-Small Cell Lung Cancer panel; format: cell-based, Human
OVCAR-5 = assay: NCI antiproliferative SRB assay, Ovarian Cancer panel; format: cell-based, Human
[4] = Homo sapiens, 5-dose assay, read-out: Sub Panel MID b (mean GI50 of panel)
[5] = Homo sapiens, 5-dose 0.01-100 µM
[6] = Homo sapiens, 5-dose 0.01-100 µM, read-out: LC50 (the source's name)
[7] = Homo sapiens, T47D, 5-dose 0.01-100 µM

## COc1ccc(NC(=O)n2nc(/C=C/c3ccc(O)c(OC)c3)cc2/C=C/c2ccc(O)c(OC)c2)cc1 [3b]
[1]; 10 µM
  Mean % GI: 67.06%
[1]; 5-dose assay
  Selectivity Ratio (MID a:MID b): 1.28
[1]; [4]
  GI50: 3.83 µM
IGROV1; 5-dose 0.01-100 µM
  TGI: 57.0 µM
IGROV1; Homo sapiens, IGROV-1, 5-dose 0.01-100 µM
  GI50: 4.49 µM
IGROV1; Homo sapiens, IGROV-1, 5-dose 0.01-100 µM, read-out: LC50 (the source's name)
  CC50: > 100 µM
IGROV1; one dose 10 µM
  %GI: 65.61%
  GP (growth percent): 34.39
EKVX; 5-dose 0.01-100 µM
  TGI: 83.7 µM
EKVX; [5]
  GI50: 6.62 µM
EKVX; [6]
  CC50: > 100 µM
EKVX; one dose 10 µM
  %GI: 47.61%
  GP (growth percent): 52.39
RXF 393; 5-dose 0.01-100 µM
  TGI: 8.87 µM
RXF 393; [5]
  GI50: 3.02 µM
RXF 393; [6]
  CC50: > 100 µM
RXF 393; one dose 10 µM
  %GI: 76.99%
  GP (growth percent): 23.01
[2]; 10 µM
  Mean % GI: 60%
[2]; 5-dose assay
  Selectivity Ratio (MID a:MID b): 0.85
[2]; [4]
  GI50: 5.77 µM
HCC-2998; 5-dose 0.01-100 µM
  TGI: >100 µM
HCC-2998; [5]
  GI50: 5.78 µM
HCC-2998; [6]
  CC50: > 100 µM
HCC-2998; one dose 10 µM
  %GI: 25.09%
  GP (growth percent): 74.91
SF-268; 5-dose 0.01-100 µM
  TGI: 36.4 µM
SF-268; [5]
  GI50: 3.21 µM
SF-268; [6]
  CC50: > 100 µM
SF-268; one dose 10 µM
  %GI: 58.19%
  GP (growth percent): 41.81
MOLT-4; 5-dose 0.01-100 µM
  TGI: 13.3 µM
MOLT-4; [5]
  GI50: 2.87 µM
MOLT-4; [6]
  CC50: > 100 µM
MOLT-4; one dose 10 µM
  %GI: 87.76%
  GP (growth percent): 12.24
SK-MEL-5; 5-dose 0.01-100 µM
  TGI: 16.1 µM
SK-MEL-5; [5]
  GI50: 3.67 µM
SK-MEL-5; [6]
  CC50: > 100 µM
SK-MEL-5; one dose 10 µM
  %GI: 90.96%
  GP (growth percent): 9.04
NCI-H460; 5-dose 0.01-100 µM
  TGI: 31.4 µM
NCI-H460; [5]
  GI50: 4.24 µM
NCI-H460; [6]
  CC50: > 100 µM
NCI-H460; one dose 10 µM
  %GI: 85.78%
  GP (growth percent): 14.22
HCT-15; 5-dose 0.01-100 µM
  TGI: >100 µM
HCT-15; [5]
  GI50: 2.98 µM
HCT-15; [6]
  CC50: > 100 µM
HCT-15; one dose 10 µM
  GP (growth percent): 13.17
U251; Homo sapiens, U-251
  GI50: 3.55 µM
U251; Homo sapiens, U-251, U251, 5-dose 0.01-100 µM, read-out: LC50 (the source's name)
  CC50: > 100 µM
U251; U251, 5-dose 0.01-100 µM
  TGI: 20.9 µM
U251; U251, one dose 10 µM
  %GI: 73.97%
  GP (growth percent): 26.03
SK-MEL-2; 5-dose 0.01-100 µM
  TGI: 18.1 µM
SK-MEL-2; [5]
  GI50: 3.23 µM
SK-MEL-2; [6]
  CC50: > 100 µM
SK-MEL-2; one dose 10 µM
  %GI: 78.62%
  GP (growth percent): 21.38
HCT-116; 5-dose 0.01-100 µM
  TGI: 42.9 µM
HCT-116; [5]
  GI50: 3.22 µM
HCT-116; [6]
  CC50: > 100 µM
HCT-116; one dose 10 µM
  %GI: 90.87%
  GP (growth percent): 9.13
OVCAR-3; 5-dose 0.01-100 µM
  TGI: 8.40 µM
OVCAR-3; [5]
  GI50: 2.98 µM
OVCAR-3; [6]
  CC50: > 100 µM
OVCAR-3; one dose 10 µM
  %GI: 86.38%
  GP (growth percent): 13.62
COLO 205; 5-dose 0.01-100 µM
  TGI: 44.3 µM
COLO 205; [5]
  GI50: 16.2 µM
COLO 205; [6]
  CC50: > 100 µM
COLO 205; one dose 10 µM
  %GI: −6.58%
  GP (growth percent): 106.58
CCRF-CEM; 5-dose 0.01-100 µM
  TGI: 32.7 µM
CCRF-CEM; [5]
  GI50: 2.34 µM
CCRF-CEM; [6]
  CC50: > 100 µM
CCRF-CEM; one dose 10 µM
  %GI: 88.23%
  GP (growth percent): 11.77
LOX IMVI; 5-dose 0.01-100 µM
  TGI: >100 µM
LOX IMVI; [5]
  GI50: 3.95 µM
LOX IMVI; [6]
  CC50: > 100 µM
LOX IMVI; one dose 10 µM
  %GI: 72.41%
  GP (growth percent): 27.59
SR
  TGI: 12.8 µM
SR; Homo sapiens
  GI50: 1.52 µM
SR; Homo sapiens, read-out: LC50 (the source's name)
  CC50: > 100 µM
MALME-3M; 5-dose 0.01-100 µM
  TGI: 38.6 µM
MALME-3M; [5]
  GI50: 3.66 µM
MALME-3M; [6]
  CC50: > 100 µM
MALME-3M; one dose 10 µM
  %GI: 48.14%
  GP (growth percent): 51.86
[3]; [4]
  GI50: 5.84 µM
[3]; 10 µM
  Mean % GI: 60.54%
[3]; 5-dose assay
  Selectivity Ratio (MID a:MID b): 0.84
RPMI-8226; 5-dose 0.01-100 µM
  TGI: 29.2 µM
RPMI-8226; [5]
  GI50: 3.38 µM
RPMI-8226; [6]
  CC50: > 100 µM
RPMI-8226; one dose 10 µM
  %GI: 78.70%
  GP (growth percent): 21.30
PC-3; 5-dose 0.01-100 µM
  TGI: >100 µM
PC-3; [5]
  GI50: 5.11 µM
PC-3; [6]
  CC50: > 100 µM
PC-3; one dose 10 µM
  %GI: 71.57%
  GP (growth percent): 28.43
M14; 5-dose 0.01-100 µM
  TGI: 41.5 µM
M14; [5]
  GI50: 3.15 µM
M14; [6]
  CC50: > 100 µM
M14; one dose 10 µM
  %GI: 95.03%
  GP (growth percent): 4.97
UO-31; 5-dose 0.01-100 µM
  TGI: 36.4 µM
UO-31; [5]
  GI50: 1.52 µM
  LC50 (50% lethal concentration): > 100 µM
UO-31; one dose 10 µM
  %GI: 77.33%
  GP (growth percent): 22.67
BT-549; 5-dose 0.01-100 µM
  TGI: 29.5 µM
BT-549; [5]
  GI50: 2.49 µM
BT-549; [6]
  CC50: > 100 µM
BT-549; one dose 10 µM
  %GI: 68.63%
  GP (growth percent): 31.37
HS 578T; 5-dose 0.01-100 µM
  TGI: 61.9 µM
HS 578T; [5]
  GI50: 6.77 µM
HS 578T; [6]
  CC50: > 100 µM
HS 578T; one dose 10 µM
  %GI: 71.29%
  GP (growth percent): 28.71
T-47D; 5-dose 0.01-100 µM
  TGI: 25.8 µM
T-47D; [7]
  GI50: 3.68 µM
  LC50 (lethal concentration, 50% cell kill): > 100 µM
T-47D; one dose 10 µM
  %GI: 65.17%
  GP (growth percent): 34.83
NCI-H226; 5-dose 0.01-100 µM
  TGI: 78.6 µM
NCI-H226; [5]
  GI50: 10.7 µM
NCI-H226; [6]
  CC50: > 100 µM
NCI-H226; one dose 10 µM
  %GI: 12.85%
  GP (growth percent): 87.15
OVCAR-5; 5-dose 0.01-100 µM
  TGI: 54.1 µM
OVCAR-5; [5]
  GI50: 18.8 µM
OVCAR-5; [6]
  CC50: > 100 µM
OVCAR-5; one dose 10 µM
  %GI: 37.70%
  GP (growth percent): 62.30
